Source: article PMC11957517, “Efficient production of hydroxysalidroside in Escherichia coli via enhanced glycosylation and semi-rational design of UGT85A1” (Synthetic and Systems Biotechnology, 2025)

How the values were obtained:
UGT33 = target: T1, UGT33 (Rhodiola rosea, UniProt A0A2I6B3R9); test: whole-cell conversion in E. coli, HPLC; type: cell-based; settings: intracellular UDPG, pgm and galU overexpressed, 48 h
T1 construct: synthesized gene in pETDuet-1, E. coli BL21(DE3) whole cells with pCDFDuet-pgm-galU
T1 sequence (A0A2I6B3R9 1-498): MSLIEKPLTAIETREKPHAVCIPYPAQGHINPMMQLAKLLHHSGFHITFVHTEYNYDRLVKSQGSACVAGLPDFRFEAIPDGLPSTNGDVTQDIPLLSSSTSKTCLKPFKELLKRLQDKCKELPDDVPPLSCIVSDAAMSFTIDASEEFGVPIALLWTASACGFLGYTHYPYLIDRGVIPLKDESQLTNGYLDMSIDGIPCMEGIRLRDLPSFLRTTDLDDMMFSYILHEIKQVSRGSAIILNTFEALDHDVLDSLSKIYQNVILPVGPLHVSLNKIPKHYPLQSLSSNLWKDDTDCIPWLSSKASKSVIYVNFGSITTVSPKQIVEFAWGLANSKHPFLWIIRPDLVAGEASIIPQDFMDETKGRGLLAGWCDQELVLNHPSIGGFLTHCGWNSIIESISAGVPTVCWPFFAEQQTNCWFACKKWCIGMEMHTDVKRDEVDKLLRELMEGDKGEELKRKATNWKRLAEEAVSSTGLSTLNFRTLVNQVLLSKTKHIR

UGT13 = target: T2, UGT13 (Oryza sativa, UniProt Q6Z684); test: whole-cell conversion in E. coli, HPLC; type: cell-based; settings: intracellular UDPG, pgm and galU overexpressed, 48 h
T2 construct: synthesized gene in pETDuet-1, E. coli BL21(DE3) whole cells with pCDFDuet-pgm-galU
T2 sequence (Q6Z684 1-485): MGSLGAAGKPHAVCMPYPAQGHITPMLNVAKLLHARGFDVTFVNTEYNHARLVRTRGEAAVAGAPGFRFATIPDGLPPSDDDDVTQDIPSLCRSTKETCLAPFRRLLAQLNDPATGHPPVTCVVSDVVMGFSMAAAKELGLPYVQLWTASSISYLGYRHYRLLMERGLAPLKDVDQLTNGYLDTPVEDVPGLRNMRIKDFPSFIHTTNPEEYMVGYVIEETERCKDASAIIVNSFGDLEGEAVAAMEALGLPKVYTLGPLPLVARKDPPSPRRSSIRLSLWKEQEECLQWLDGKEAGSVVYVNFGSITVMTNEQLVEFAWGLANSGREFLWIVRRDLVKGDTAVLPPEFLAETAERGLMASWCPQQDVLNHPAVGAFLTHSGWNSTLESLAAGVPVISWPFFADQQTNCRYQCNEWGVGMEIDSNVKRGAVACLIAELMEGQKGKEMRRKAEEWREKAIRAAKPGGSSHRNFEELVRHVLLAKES

Compound: OCCc1ccc(O)c(O)c1 [hydroxytyrosol]
- whole-cell conversion in E. coli, HPLC (UGT33): all these enzymes could catalyze the synthesis of hydroxysalidroside
- whole-cell conversion in E. coli, HPLC (UGT13): all these enzymes could catalyze the synthesis of hydroxysalidroside
